In ChEMBL document CHEMBL3862010, “N-Arylsulfonyl-α-amino carboxamides are potent and selective inhibitors of the chemokine receptor CCR10 that show efficacy in the murine DNFB model of contact hypersensitivity” (Bioorg Med Chem Lett, 2016):

Assays:
[1] = molecular target: T1, C-C chemokine receptor type 10 (Homo sapiens, UniProt P46092); experiment: Antagonist activity at human CCR10 expressed in CHOK1 cells coexpressing aequorin/Galphaq assessed as inhibition of human CCL27-dependent calcium flux in presence of coelenterazine H by chemiluminescence assay; assay type: functional, cell-based, CHO-K1; details: read-out: pIC50 (converted)
T1 sequence (P46092 whole entry): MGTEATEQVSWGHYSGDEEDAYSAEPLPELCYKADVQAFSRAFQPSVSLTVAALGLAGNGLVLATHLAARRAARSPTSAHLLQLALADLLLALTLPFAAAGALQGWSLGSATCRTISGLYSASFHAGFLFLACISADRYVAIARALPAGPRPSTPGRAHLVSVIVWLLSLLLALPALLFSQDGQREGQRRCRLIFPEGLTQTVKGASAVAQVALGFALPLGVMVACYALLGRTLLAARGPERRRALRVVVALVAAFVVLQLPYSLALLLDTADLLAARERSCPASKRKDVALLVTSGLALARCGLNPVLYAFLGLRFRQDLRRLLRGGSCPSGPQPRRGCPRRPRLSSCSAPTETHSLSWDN

[2] = molecular target: T2, C-C chemokine receptor type 10 (Mus musculus, UniProt Q9JL21); experiment: Antagonist activity at mouse CCR10 expressed in CHOK1 cells coexpressing aequorin/Galphaq assessed as inhibition of CCL27-dependent calcium flux in presence of coelenterazine H by chemiluminescence assay; assay type: functional, cell-based, CHO-K1
T2 sequence (Q9JL21 whole entry): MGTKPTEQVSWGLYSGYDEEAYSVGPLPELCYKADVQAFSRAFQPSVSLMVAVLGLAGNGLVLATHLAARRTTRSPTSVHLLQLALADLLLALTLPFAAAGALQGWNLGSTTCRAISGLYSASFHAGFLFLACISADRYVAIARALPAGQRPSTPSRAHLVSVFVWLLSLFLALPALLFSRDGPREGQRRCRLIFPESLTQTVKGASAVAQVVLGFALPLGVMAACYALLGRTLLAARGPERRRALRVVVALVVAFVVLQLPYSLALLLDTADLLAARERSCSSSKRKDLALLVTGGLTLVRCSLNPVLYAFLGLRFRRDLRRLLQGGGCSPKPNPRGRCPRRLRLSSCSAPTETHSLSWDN

[3] = molecular target: T1, C-C chemokine receptor type 10; experiment: Antagonist activity at human CCR10 expressed in CHOK1 cells coexpressing aequorin/Galphaq assessed as inhibition of CCL27-dependent calcium flux in presence of coelenterazine H by FLIPR assay; assay type: functional, cell-based, CHO-K1
[4] = molecular target: T1, C-C chemokine receptor type 10; experiment: Displacement of human CCL27-Fc from CCR10 expressed in HEK cell membranes by immunochemical binding analysis; parameters: species or system HEK293
[5] = molecular target: T1, C-C chemokine receptor type 10; experiment: Antagonist activity at human CCR10 expressed in CHOK1 cells coexpressing aequorin/Galphaq assessed as inhibition of human CCL28-dependent calcium flux by FLIPR assay; assay type: functional, cell-based, CHO-K1
[6] = molecular target: T1, C-C chemokine receptor type 10; experiment: Antagonist activity at human CCR10 expressed in CHOK1 cells coexpressing aequorin/Galphaq assessed as inhibition of human CCL28-dependent calcium flux by chemiluminescence assay; assay type: functional, cell-based, CHO-K1
[7] = molecular target: T1, C-C chemokine receptor type 10; experiment: Antagonist activity at human CCR10 expressed in HEK cells assessed as inhibition of human CCL27-dependent cAMP production; assay type: functional, cell-based, HEK293
[8] = molecular target: T1, C-C chemokine receptor type 10; experiment: Antagonist activity at human CCR10 expressed in HEK cell membranes assessed as inhibition of human CCL27-dependent europium-labeled GTP binding; parameters: species or system HEK293
[9] = molecular target: C-C chemokine receptor type 1 (Homo sapiens, UniProt P32246); experiment: Antagonist activity at human CCR1 assessed as inhibition of MIP1alpha-induced calcium flux; assay type: functional
Chain of C-C chemokine receptor type 1 (P32246 whole entry): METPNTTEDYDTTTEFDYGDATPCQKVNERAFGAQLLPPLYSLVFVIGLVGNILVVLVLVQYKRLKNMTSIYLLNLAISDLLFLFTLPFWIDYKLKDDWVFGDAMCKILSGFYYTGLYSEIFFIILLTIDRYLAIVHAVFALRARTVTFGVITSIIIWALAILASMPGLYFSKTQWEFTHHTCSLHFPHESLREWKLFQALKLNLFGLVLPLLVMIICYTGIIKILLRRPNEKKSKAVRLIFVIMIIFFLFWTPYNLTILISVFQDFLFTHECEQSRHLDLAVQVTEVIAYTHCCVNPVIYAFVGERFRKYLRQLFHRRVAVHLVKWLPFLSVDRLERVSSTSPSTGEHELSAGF

[10] = molecular target: C-C chemokine receptor type 2 (Homo sapiens, UniProt P41597); experiment: Antagonist activity at human CCR2 assessed as inhibition of MCP1-induced calcium flux; assay type: functional
Chain of C-C chemokine receptor type 2 (P41597 whole entry): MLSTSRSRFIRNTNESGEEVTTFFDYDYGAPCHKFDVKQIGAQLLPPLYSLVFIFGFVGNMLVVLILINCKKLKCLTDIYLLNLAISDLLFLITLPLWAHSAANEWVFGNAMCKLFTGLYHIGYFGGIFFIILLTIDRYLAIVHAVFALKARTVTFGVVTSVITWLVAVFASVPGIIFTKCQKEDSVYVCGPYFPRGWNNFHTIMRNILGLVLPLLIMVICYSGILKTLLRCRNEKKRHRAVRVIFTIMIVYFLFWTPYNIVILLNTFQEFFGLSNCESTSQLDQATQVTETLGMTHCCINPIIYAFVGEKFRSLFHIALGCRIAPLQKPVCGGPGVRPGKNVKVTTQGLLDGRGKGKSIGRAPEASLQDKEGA

[11] = molecular target: C-C chemokine receptor type 5 (Homo sapiens, UniProt P51681); experiment: Antagonist activity at human CCR5 assessed as inhibition of RANTES-induced calcium flux; assay type: functional
[12] = molecular target: C-X-C chemokine receptor type 3 (Homo sapiens, UniProt P49682); experiment: Antagonist activity at human CXCR3 assessed as inhibition of IP10-induced calcium flux; assay type: functional
[13] = molecular target: C-X-C chemokine receptor type 2 (Homo sapiens, UniProt P25025); experiment: Antagonist activity at human CXCR2 assessed as inhibition of GROalpha-induced calcium flux; assay type: functional
Chain of C-X-C chemokine receptor type 2 (P25025 whole entry): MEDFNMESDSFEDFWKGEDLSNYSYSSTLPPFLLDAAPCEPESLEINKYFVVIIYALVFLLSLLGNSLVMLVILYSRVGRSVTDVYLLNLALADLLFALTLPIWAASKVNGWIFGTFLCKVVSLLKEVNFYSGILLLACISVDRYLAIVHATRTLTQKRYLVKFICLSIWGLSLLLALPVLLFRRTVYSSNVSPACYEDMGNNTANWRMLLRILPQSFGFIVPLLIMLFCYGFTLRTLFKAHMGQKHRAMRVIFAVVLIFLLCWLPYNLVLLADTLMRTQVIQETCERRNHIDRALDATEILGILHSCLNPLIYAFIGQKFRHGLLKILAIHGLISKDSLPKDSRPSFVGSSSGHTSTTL

[14] = molecular target: C-C chemokine receptor type 6 (Homo sapiens, UniProt P51684); experiment: Antagonist activity at human CCR6 assessed as inhibition of CCL20/MIP-3alpha-induced calcium flux; assay type: functional
[15] = molecular target: Histamine H4 receptor (Homo sapiens, UniProt Q9H3N8); experiment: Antagonist activity at human histamine H4 receptor assessed as inhibition of histamine-induced calcium flux; assay type: functional
Chain of Histamine H4 receptor (Q9H3N8 whole entry): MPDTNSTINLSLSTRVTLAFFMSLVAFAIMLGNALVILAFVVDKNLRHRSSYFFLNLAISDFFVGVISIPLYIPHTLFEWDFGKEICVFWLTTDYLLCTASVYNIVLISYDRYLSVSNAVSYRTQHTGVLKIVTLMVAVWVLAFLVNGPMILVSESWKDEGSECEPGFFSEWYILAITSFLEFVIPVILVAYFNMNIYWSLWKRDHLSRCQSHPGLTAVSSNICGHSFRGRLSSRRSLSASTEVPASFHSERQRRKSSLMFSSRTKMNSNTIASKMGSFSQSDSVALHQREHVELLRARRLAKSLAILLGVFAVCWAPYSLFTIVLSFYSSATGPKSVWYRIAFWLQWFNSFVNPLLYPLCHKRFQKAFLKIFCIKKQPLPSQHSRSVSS

[16] = molecular target: Adrenergic receptor alpha-1 (Rattus norvegicus) (UniProt P15823+P23944+P43140); experiment: Binding affinity to rat adrenergic alpha1 receptor at 10 uM relative to control
[17] = molecular target: Adrenergic receptor alpha-2 (Rattus norvegicus) (UniProt P22086+P19328+P22909); experiment: Binding affinity to rat adrenergic alpha2 receptor at 10 uM relative to control
[18] = molecular target: Adrenergic receptor beta (Rattus norvegicus) (UniProt P18090+P10608+P26255); experiment: Binding affinity to rat adrenergic beta receptor at 10 uM relative to control
[19] = molecular target: Type-1 angiotensin II receptor (Homo sapiens) (UniProt P30556); experiment: Binding affinity to human AT1 receptor at 10 uM relative to control
Chain of Type-1 angiotensin II receptor (Homo sapiens) (P30556 whole entry): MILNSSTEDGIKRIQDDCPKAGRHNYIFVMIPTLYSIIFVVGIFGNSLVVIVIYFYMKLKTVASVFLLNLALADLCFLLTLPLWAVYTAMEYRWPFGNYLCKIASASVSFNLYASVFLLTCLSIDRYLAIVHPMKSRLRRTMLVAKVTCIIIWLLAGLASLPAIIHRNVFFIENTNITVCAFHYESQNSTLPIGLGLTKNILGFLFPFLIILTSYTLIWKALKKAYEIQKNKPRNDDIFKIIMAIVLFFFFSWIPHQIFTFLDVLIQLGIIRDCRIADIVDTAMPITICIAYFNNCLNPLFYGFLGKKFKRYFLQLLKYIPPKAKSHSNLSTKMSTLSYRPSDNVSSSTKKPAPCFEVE

[20] = molecular target: B2 bradykinin receptor (Homo sapiens) (UniProt P30411); experiment: Binding affinity to human B2 bradykinin receptor at 10 uM relative to control
[21] = molecular target: Calcitonin gene-related peptide type 1 receptor (Homo sapiens) (UniProt Q16602); experiment: Binding affinity to human CGRP1 receptor at 10 uM relative to control
[22] = molecular target: D(1A) dopamine receptor (Homo sapiens) (UniProt P21728); experiment: Binding affinity to human dopamine D1 receptor at 10 uM relative to control
Chain of D(1A) dopamine receptor (Homo sapiens) (P21728 whole entry): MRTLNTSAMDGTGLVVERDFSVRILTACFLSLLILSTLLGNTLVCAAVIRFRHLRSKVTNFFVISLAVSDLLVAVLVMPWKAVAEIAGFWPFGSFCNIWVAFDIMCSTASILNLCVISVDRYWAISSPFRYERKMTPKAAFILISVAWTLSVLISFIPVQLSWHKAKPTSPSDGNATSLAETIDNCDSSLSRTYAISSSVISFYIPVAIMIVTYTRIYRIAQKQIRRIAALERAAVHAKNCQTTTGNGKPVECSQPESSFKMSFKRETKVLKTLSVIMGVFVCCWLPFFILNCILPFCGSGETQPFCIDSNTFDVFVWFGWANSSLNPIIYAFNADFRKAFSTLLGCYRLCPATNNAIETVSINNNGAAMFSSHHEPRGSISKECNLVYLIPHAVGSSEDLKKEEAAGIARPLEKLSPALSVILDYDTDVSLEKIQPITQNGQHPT

[23] = molecular target: D(2) dopamine receptor (Homo sapiens) (UniProt P14416); experiment: Binding affinity to human dopamine D2L receptor at 10 uM relative to control
Chain of D(2) dopamine receptor (Homo sapiens) (P14416 whole entry): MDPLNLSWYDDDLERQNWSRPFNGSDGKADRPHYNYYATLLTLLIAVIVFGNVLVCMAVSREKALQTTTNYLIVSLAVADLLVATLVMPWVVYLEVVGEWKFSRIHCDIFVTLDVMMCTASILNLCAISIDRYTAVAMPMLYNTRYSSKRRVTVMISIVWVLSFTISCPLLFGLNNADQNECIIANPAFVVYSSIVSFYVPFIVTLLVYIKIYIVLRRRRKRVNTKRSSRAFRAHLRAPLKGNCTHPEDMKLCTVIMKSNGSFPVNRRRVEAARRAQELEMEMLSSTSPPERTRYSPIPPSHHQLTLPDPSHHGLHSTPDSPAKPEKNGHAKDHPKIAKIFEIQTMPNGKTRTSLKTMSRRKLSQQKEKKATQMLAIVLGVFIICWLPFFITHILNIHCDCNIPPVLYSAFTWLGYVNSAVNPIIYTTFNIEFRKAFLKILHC

[24] = molecular target: D(3) dopamine receptor (Homo sapiens) (UniProt P35462); experiment: Binding affinity to human dopamine D3 receptor at 10 uM relative to control
Chain of D(3) dopamine receptor (Homo sapiens) (P35462 whole entry): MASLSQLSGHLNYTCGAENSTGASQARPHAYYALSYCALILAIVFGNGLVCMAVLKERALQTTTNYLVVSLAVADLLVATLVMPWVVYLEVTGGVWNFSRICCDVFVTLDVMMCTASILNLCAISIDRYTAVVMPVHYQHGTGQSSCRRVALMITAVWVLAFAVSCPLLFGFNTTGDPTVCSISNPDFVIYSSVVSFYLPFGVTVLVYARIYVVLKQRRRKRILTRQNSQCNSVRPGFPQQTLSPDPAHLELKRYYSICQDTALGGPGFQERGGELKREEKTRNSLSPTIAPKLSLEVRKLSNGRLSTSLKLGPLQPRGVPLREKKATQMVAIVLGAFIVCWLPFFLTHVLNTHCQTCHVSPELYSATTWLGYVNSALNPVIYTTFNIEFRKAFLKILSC

[25] = species on record: Homo sapiens; experiment: Binding affinity to human dopamine D4.2 receptor at 10 uM relative to control
[26] = species on record: Rattus norvegicus; experiment: Binding affinity to rat GABA-B receptor at 10 uM relative to control
[27] = molecular target: Histamine H1 receptor (Homo sapiens) (UniProt P35367); experiment: Binding affinity to human histamine H1 receptor at 10 uM relative to control
Chain of Histamine H1 receptor (Homo sapiens) (P35367 whole entry): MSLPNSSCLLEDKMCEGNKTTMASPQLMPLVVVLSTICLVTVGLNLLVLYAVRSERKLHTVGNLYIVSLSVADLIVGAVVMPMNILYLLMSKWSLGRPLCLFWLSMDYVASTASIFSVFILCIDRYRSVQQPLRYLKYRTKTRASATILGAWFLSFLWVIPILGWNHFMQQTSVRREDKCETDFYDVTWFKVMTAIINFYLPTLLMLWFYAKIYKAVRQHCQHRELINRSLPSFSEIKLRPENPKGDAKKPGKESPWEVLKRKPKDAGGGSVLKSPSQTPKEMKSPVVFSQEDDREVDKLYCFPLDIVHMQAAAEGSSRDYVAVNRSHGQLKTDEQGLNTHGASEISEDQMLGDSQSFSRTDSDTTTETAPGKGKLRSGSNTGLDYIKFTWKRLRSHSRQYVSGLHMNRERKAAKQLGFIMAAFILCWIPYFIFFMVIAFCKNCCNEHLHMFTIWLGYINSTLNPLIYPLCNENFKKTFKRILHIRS

[28] = molecular target: Histamine H2 receptor (Homo sapiens) (UniProt P25021); experiment: Binding affinity to human histamine H2 receptor at 10 uM relative to control
Chain of Histamine H2 receptor (Homo sapiens) (P25021 whole entry): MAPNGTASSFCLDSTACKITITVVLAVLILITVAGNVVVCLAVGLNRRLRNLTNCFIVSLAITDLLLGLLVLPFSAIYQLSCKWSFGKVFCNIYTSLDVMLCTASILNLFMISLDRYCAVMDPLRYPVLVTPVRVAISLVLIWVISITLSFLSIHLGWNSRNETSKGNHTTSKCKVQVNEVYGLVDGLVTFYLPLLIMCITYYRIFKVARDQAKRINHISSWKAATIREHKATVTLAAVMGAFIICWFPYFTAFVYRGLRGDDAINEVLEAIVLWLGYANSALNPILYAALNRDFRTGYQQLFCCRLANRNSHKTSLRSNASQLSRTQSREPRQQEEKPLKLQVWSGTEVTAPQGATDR

[29] = species on record: Rattus norvegicus; experiment: Binding affinity to rat muscarinic acetylcholine receptor at 10 uM relative to control
[30] = species on record: Homo sapiens; experiment: Binding affinity to human nicotinic acetylcholine receptor at 10 uM relative to control
[31] = species on record: Rattus norvegicus; experiment: Binding affinity to rat 5-HT1 receptor at 10 uM relative to control
[32] = molecular target: 5-hydroxytryptamine receptor 2A (Rattus norvegicus) (UniProt P14842); experiment: Binding affinity to rat 5-HT2 receptor at 10 uM relative to control
Chain of 5-hydroxytryptamine receptor 2A (Rattus norvegicus) (P14842 whole entry): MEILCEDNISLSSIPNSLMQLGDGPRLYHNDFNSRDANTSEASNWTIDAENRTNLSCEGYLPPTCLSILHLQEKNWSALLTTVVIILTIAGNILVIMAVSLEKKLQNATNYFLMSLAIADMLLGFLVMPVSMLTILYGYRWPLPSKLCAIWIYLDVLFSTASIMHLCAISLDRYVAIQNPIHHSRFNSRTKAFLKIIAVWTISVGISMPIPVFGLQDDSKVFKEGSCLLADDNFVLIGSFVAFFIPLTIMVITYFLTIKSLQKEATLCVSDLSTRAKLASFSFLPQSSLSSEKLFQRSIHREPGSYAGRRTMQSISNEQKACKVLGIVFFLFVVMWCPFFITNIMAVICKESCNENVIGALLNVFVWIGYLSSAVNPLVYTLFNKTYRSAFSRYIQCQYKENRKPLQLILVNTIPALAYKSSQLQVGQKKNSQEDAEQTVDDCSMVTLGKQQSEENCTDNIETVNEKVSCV

[33] = molecular target: 5-hydroxytryptamine receptor 3A (Homo sapiens) (UniProt P46098); experiment: Binding affinity to human 5-HT3 receptor at 10 uM relative to control
Chain of 5-hydroxytryptamine receptor 3A (Homo sapiens) (P46098 whole entry): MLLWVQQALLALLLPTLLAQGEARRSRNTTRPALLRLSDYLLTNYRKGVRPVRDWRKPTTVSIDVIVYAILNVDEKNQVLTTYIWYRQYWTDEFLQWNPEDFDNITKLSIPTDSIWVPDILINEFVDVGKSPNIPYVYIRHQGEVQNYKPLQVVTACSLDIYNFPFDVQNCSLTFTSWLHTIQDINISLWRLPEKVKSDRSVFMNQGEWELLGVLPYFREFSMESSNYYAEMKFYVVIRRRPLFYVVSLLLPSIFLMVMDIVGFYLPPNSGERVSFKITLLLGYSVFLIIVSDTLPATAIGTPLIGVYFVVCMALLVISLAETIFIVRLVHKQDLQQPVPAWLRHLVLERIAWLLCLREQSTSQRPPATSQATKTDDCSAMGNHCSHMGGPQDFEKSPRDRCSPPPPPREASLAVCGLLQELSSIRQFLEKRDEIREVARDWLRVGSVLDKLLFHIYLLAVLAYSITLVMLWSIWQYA

[34] = molecular target: 5-hydroxytryptamine receptor 4 (Cavia porcellus) (UniProt O70528); experiment: Binding affinity to guinea pig 5-HT4 receptor at 10 uM relative to control
[35] = molecular target: T1, C-C chemokine receptor type 10; experiment: Reversible inhibition of human CCL27-Fc binding to CCR10 expressed in HEK cell membranes by immunochemical binding assay; parameters: species or system HEK293
[36] = Half life in mouse liver microsomes; assay type: ADME
[37] = Clearance in mouse liver microsomes relative to hepatic blood flow; assay type: ADME; details: read-out: CLH
[38] = Protein binding in Balb/C mouse plasma at 100 mg/kg, ip bid; assay type: ADME, organism-based; details: Balb/C, plasma, read-out: PPB
[39] = test system: Mus musculus; experiment: Antiinflammatory activity in Balb/C mouse model of contact hypersensitivity assessed as inhibition of DNFB-stimulated ear swelling at 100 mg/kg, ip bid administered at 0 and 8 hrs measured 24 hrs post DNFB stimulation; assay type: functional
[40] = Plasma concentration in Balb/C mouse at 100 mg/kg, ip bid measured after 1 hr; assay type: ADME, organism-based; details: in vivo
[41] = Plasma concentration in Balb/C mouse at 30 mg/kg, ip bid measured after 1 hr; assay type: ADME, organism-based; details: Balb/C, plasma
[42] = Plasma concentration in Balb/C mouse at 100 mg/kg, ip bid measured after 7 hrs; assay type: ADME, organism-based
[43] = Time at which plasma concentration stays near or above in vitro murine IC50 level in Balb/C mouse at 100 mg/kg, ip bid; assay type: ADME, organism-based; details: in vivo
[44] = species on record: Rattus norvegicus; experiment: Binding affinity to rat GABA-A receptor at 10 uM relative to control
[45] = species on record: Rattus norvegicus; experiment: Binding affinity to rat glutamate receptor at 10 uM relative to control
[46] = species on record: Homo sapiens; experiment: Binding affinity to human IL-8 receptor at 10 uM relative to control
[47] = test system: Mus musculus; experiment: Antiinflammatory activity in Balb/C mouse model of contact hypersensitivity assessed as inhibition of DNFB-stimulated ear swelling administered ip bid at 0 and 8 hrs measured 24 hrs post DNFB stimulation; assay type: functional, organism-based
[48] = molecular target: C-C chemokine receptor type 4 (Homo sapiens) (UniProt P51679); experiment: Antagonist activity at human CCR4 assessed as inhibition of CCL22-induced calcium flux at 10 uM relative to control; assay type: functional

Structure (SMILES)	IC50 [1] [nM]	IC50 [2] [nM]	IC50 [3] [nM]	IC50 [5] [nM]	IC50 [6] [nM]	IC50 [7] [nM]	IC50 [8] [nM]	IC50 [9] [nM]	IC50 [10] [nM]	IC50 [11] [nM]	IC50 [12] [nM]	IC50 [13] [nM]	IC50 [14] [nM]	IC50 [15] [nM]	Activity [16] [%]	Activity [17] [%]	Activity [18] [%]	Activity [19] [%]	Activity [20] [%]	Activity [22] [%]	also measured
CC1CCN(C(=O)C(CCn2cccc2C#N)NS(=O)(=O)c2cc(Cl)c(N)c(Cl)c2)CC1 (stereo not given)	20	1580	2	12.6	12.6	158	20	> 10000	> 10000	> 10000	> 10000	> 10000	> 10000	> 10000	< 10	< 10	12	< 10	< 10	< 10	IC50 [4]: 3.4 nM; Activity [21]: < 10%; Activity [23]: < 10%; Activity [24]: 11%; Activity [25]: < 10%; Activity [26]: 10%; Activity [27]: < 10%; Activity [28]: 12%; Activity [29]: 11%; Activity [30]: < 10%; Activity [31]: 11%; Activity [32]: < 10%; Activity [33]: < 10%; Activity [34]: 28%; IC50 [35]: 3.4 nM
CC1CCN(C(=O)C(CCn2cccc2C#N)NS(=O)(=O)c2cccc3[nH]ccc23)CC1 (racemic)	2	63.1	0.398	1.26	1	25.1	10	> 10000	> 10000	> 10000	> 10000	> 10000	–	> 10000	–	–	–	–	–	–	half-life [36]: < 3 min; hepatic extraction ratio [37]: > 0.88
CC1CCN(C(=O)C(CCn2cccc2C#N)NS(=O)(=O)c2cccc3[nH]ccc23)CC1 (stereo in doubt; form 1) [listing 1 of 2 here]	1	25.1	–	–	–	–	–	–	–	–	–	–	> 10000	–	–	–	–	–	–	–	fraction unbound [38]: 0.01; inhibition in vivo at 100 mg/kg [39]: 75%; concentration [40]: 7.6 µM; concentration at 1 h [41]: 3.7 µM; concentration at 7 h [42]: 0.2 µM; Time [43]: <= 8 hr
CC1CCN(C(=O)C(CCn2cccc2C#N)NS(=O)(=O)c2cccc3[nH]ccc23)CC1 (stereo in doubt; form 1) [listing 2 of 2 here]	–	–	–	–	–	–	–	–	–	–	–	–	–	–	< 10	< 10	< 10	< 10	< 10	< 10	Activity [23]: < 10%; Activity [24]: < 10%; Activity [44]: < 10%; Activity [26]: < 10%; Activity [45]: < 10%; Activity [27]: < 10%; Activity [28]: < 10%; Activity [46]: < 10%; Activity [29]: 22%; Activity [30]: < 10%; Activity [31]: 19%; Activity [32]: < 10%; Activity [33]: < 10%; inhibition [47]: Dose-dependent effect; inhibition [48]: < 10%
